Structures can show the parent of a compound that is named as a salt. Where two headings read alike, the source gives them in different places.
Assays:
[1] = molecular target: T1, AuroraA-TPX2 (Homo sapiens, UniProt O14965); assay: AuroraA-TPX2 Homogeneous Time Resolved Fluorescent (HTRF) kinase assay; type: biochemical
T1 construct: 20 µL of AuroraA-TPX2 KD GST; GST
T1 sequence (O14965 133-383 limits assumed): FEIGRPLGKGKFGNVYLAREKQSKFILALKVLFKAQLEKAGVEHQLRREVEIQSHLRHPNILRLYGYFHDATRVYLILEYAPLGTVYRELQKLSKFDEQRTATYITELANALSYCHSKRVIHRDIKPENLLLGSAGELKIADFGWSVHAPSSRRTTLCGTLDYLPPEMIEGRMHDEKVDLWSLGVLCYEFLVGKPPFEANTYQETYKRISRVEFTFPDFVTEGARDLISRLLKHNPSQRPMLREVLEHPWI
T1 sequence (Q9ULW0 1-43 partner limits assumed): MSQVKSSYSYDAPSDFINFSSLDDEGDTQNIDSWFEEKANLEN
Experimental: AuroraA-TPX2-Homogeneous Time Resolved Fluorescent (HTRF) Kinase Assay:
The Aurora-A HTRF assay begins with Aurora-A in the presence of ATP phosphorylating the biotinylated peptide PLK. The reaction incubates for about 120 min. Detection reagents are added to quench the reaction. These agents stop the reaction by diluting out the enzyme and chelating the metals due to the presence of EDTA. After addition, the assay is incubated overnight to allow the detection reagents to equilibrate.
The final concentration of PLK is about 1 µM. […] Buffer conditions are as follows: 60mM HEPES pH 7.5, 25mM NaCl, 10mM MgCl, 2mM DTT, 0.05% BSA.
(§1) The assay is quenched and stopped with 160 µL, of detection reagent. Detection reagents are as follows: Buffer made of 50mM Tris, pH 7.5, 100mM NaCl, 3mM EDTA, 0.05% BSA, 0.1% Tween20. Added to this buffer prior to reading is Steptavidin allophycocyanin (SA-APC) at a final conc in the assay of 0.0005 mg/mL, and europilated anti-phosphoPLK Ab (Eu-anti-PLK) at a final conc of 0.02 nM.
The assay plate is read in either a Discovery or a RubyStar. The eu-anti-PLK is excited at 320 nm and emits at 615 nm to excite the SA-APC which in turn emits at 655 nm.

[2] = molecular target: T2, AuroraB (Homo sapiens, UniProt Q96GD4); assay: AuroraB Homogeneous Time Resolved Fluorescent (HTRF) kinase assay; type: biochemical
T2 construct: 20 µL of AuroraB FL His; His
T2 sequence (Q96GD4 whole entry): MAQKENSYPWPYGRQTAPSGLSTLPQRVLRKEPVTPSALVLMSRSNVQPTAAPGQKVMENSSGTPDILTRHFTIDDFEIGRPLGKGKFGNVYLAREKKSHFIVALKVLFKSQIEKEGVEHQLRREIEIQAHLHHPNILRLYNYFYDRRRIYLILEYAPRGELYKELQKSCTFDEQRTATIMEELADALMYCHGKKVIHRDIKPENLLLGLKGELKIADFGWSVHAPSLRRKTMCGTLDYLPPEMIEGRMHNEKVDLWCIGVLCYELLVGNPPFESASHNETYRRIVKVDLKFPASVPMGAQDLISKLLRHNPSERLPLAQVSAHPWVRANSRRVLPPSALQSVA
Experimental: AuroraB-Homogeneous Time Resolved Fluorescent (HTRF) Kinase Assay:
The AuroraB HTRF assay begins with AuroraB in the presence of ATP phosphorylating the biotinylated peptide Histone H3. The reaction incubates for about 90 min. the reaction is quentched by addition of detection reagents, which stop the reaction by diluting out the enzyme and chelating the metals due to the presence of EDTA. After addition, the assay is incubated for about 60 min to allow detection reagents to equilibrate.
The AuroraB HTRF assay comprises 1 µL of compound in 100% DMSO, 20 µL of ATP and biotinylated Histone H3, and 20 µL of AuroraB FL His for a final volume of 41 µL. The final concentration of Histone H3 is 0.1 µM. The final concentration of ATP is 23 µM (Km(app) = 23 µM+/-2.6) and the final concentration of AuroraB is 400 pM. Buffer conditions are as follows: 50mM HEPES pH 7.5, 5mM NaCl, 0.5mM MgCl, 0.5mM MnCl, 2mM DTT, 0.05% BSA.
as §1, with “µL” for “µL,”, “0.001” for “0.0005”, “anti-phosphoHistoneH3” for “anti-phosphoPLK”, “(Eu-anti-HisH3)” for “(Eu-anti-PLK)”, “0.064” for “0.02”
The assay plate is read in either a Discovery or a RubyStar. The eu-anti-HisH3 is excited at 320 nm and emits at 615 nm to excite the SA-APC which in turn emits at 655 nm. The ratio of SA-APC at 655 nm (excited due to close proximity to the Eu-anti-HisH3 because of phosphorylation of the peptide) to free Eu-anti-HisH3 at 615 nm will give substrate phosphorylation.

[3] = read-out: average inhibitory activity (IC50) in the Aurora kinase A HTRF assay
[4] = read-out: average activity in the Aurora kinase B HTRF assay
[5] = read-out: average activity in the Aurora kinase A HTRF assay
[6] = average, given as numbers, unit inferred, read-out: AurB_ _IC50_IP (Avg)
[7] = average, given as numbers, unit inferred, read-out: AurA/TP X2_ IC50_IP (Avg)
[8] = average, given as class symbols, read-out: AurB_ _IC50_IP (Avg)
[9] = average, given as class symbols, read-out: AurA/TP X2_ IC50_IP (Avg)

| IC50 [2, 4] | IC50 [1, 5] | IC50 [2, 8] | Structure (SMILES) | further results |
| --- | --- | --- | --- | --- |
|  |  |  | CNc1cc(-c2cccnc2Oc2ccc(Nc3nnc(-c4ccc(F)cc4)c4ccccc34)cn2)ccn1 [Example 60, 2-((5-((4-(4-fluorophenyl)-1-phthalazinyl)amino)-2-pyridinyl)oxy)-N-methyl-3,4'-bipyridin-2'-amine] | IC50 [1, 3]: < 500 nM |
|  |  |  | c1ccc(-c2nnc(Nc3ccc(Oc4ncccc4-c4ccnc5[nH]ccc45)cc3)c3ccccc23)cc1 [Example 61, 4-phenyl-N-(4-((3-(1H-pyrrolo[2,3-b]pyridin-4-yl)-2-pyridinyl)oxy)phenyl)-1-phthalazinamine] | IC50 [1, 3]: < 500 nM |
|  |  |  | Nc1nccc(-c2cccnc2Oc2ccc(Nc3nnc(N4CCCCC4)c4ccccc34)cc2)n1 [Example 67, N-(4-((3-(2-amino-4-pyrimidinyl)-2-pyridinyl)oxy)phenyl)-4-(1-piperidinyl)-1-phthalazinamine] | IC50 [1, 3]: < 500 nM |
|  |  |  | CNc1nccc(-c2cccnc2Oc2ccc(Nc3nnc(N4CCCCC4)c4ccccc34)cn2)n1 [Example 68, N-(6-((3-(2-(methylamino)-4-pyrimidinyl)-2-pyridinyl)oxy)-3-pyridinyl)-4-(1-piperidinyl)-1-phthalazinamine] | IC50 [1, 3]: < 500 nM |
| ≤ 1000 nM | ≤ 1000 nM |  | NC(=O)c1n[nH]cc1-c1cccnc1Oc1ccc(Nc2nnc(-c3ccccc3)c3ccccc23)cc1 [Example 241, 4-(2-(4-(4-phenylphthalazin-1-ylamino)phenoxy)pyridin-3-yl)-1H-pyrazole-3-carboxamide] |  |
| ≤ 1000 nM | ≤ 1000 nM |  | CNc1nccc(-c2cccnc2Oc2ccc(Nc3nnc(-c4cc(Cl)cs4)c4ccccc34)cc2)n1 [Example 245, 4-(4-chlorothiophen-2-yl)-N-(4-(3-(2-(methylamino)pyrimidin-4-yl)pyridin-2-yloxy)phenyl)phthalazin-1-amine] |  |
| ≤ 100 nM | ≤ 100 nM |  | c1ccc(-c2nnc(Nc3cnc(Oc4ccccc4-c4ccncc4)nc3)c3ccccc23)cc1 [Example 468, 4-Phenyl-N-(2-(2-(pyridin-4-yl)phenoxy)pyrimidin-5-yl)phthalazin-1-amine] |  |
| ≤ 100 nM | ≤ 100 nM |  | Nc1ncc(F)c(-c2cccnc2Oc2ccc(Nc3nnc(-c4ccccc4)c4ccccc34)cc2)n1 [Example 469, N-(4-(3-(2-Amino-5-fluoropyrimidin-4-yl)pyridin-2-yloxy)phenyl)-4-phenylphthalazin-1-amine] |  |
| ≤ 1000 nM | ≤ 1000 nM |  | COC(=O)c1cc(-c2ccccc2)nnc1Nc1ccc(Oc2ncccc2-c2ccnc(N)n2)cc1 [Example 470, methyl 3-((4-((3-(2-amino-4-pyrimidinyl)-2-pyridinyl)oxy)phenyl)amino)-6-phenyl-4-pyridazinecarboxylate] |  |
| ≤ 1000 nM | ≤ 1000 nM |  | Nc1nccc(-c2cccnc2Oc2ccc(Nc3nnc(-c4ccc(CN5CCCC5)cc4)c4ccccc34)cc2)n1 [Example Method E, N-(4-(3-(2-aminopyrimidin-4-yl)pyridin-2-yloxy)phenyl)-4-(4-(pyrrolidin-1-ylmethyl)phenyl)phthalazin-1-amine] |  |
| ≤ 100 nM | ≤ 100 nM |  | O=P(O)(O)OCCCNc1nccc(-c2cccnc2Oc2ccc(Nc3nnc(-c4ccccc4)c4ccccc34)cc2)n1 [Example Method F, 3-(4-(2-(4-(4-phenylphthalazin-1-ylamino)phenoxy)pyridin-3-yl)pyrimidin-2-ylamino)propyl dihydrogen phosphate dihydrochloride] |  |
|  |  |  | Cc1cc(-c2nnc(Nc3ccc(Oc4ncccc4-c4ccnc(N)n4)cc3)c3ccccc23)sn1 [compound 251, N-(4-((3-(2-amino-4-pyrimidinyl)-2-pyridinyl)oxy)phenyl)-4-(3-methyl-5-isothiazolyl)-1-phthalazinamine] | IC50 [2, 6]: 0.4 nM; IC50 [1, 7]: 16 nM |
|  |  |  | c1ccc(-c2nnc(Nc3ccc(Oc4ccccc4-c4ccncc4)cc3)c3ccccc23)cc1 [compound 252, 4-phenyl-N-(4-((2-(4-pyridinyl)phenyl)oxy)phenyl)-1-phthalazinamine] | IC50 [2, 6]: 660 nM; IC50 [1, 7]: 166 nM |
|  |  |  | COc1cccc(OC)c1-c1nnc(Nc2ccc(Oc3ncccc3-c3ccnc(N)n3)cc2)c2ccccc12 [compound 253, N-(4-((3-(2-amino-4-pyrimidinyl)-2-pyridinyl)oxy)phenyl)-4-(2,6-bis(methyloxy)phenyl)-1-phthalazinamine] | IC50 [2, 6]: 472 nM; IC50 [1, 7]: 2320 nM |
|  |  | ≤ 100 nM | Nc1nccc(-c2ccccc2Oc2ccc(Nc3nnc(-c4ccccc4)c4ccccc34)cc2)n1 [compound 254, N-(4-((2-(2-amino-4-pyrimidinyl)phenyl)oxy)phenyl)-4-phenyl-1-phthalazinamine] | IC50 [1, 9]: ≤ 100 nM |
|  |  | ≤ 100 nM | CNc1cc(-c2cccnc2Nc2ccc(Nc3nnc(-c4ccccc4)c4ccccc34)cc2)ncn1 [compound 255, N-(3-(6-(methylamino)-4-pyrimidinyl)-2-pyridinyl)-N'-(4-phenyl-1-phthalazinyl)-1,4-benzenediamine] | IC50 [1, 9]: 100 to 500 nM |
|  |  | 500 to 2500 nM | Cc1csc(-c2cc(C)c(Nc3ccc(Oc4ncccc4-c4ccnc5c4CCCN5)cc3)nn2)n1 [compound 286, 4-methyl-6-(4-methyl-1,3-thiazol-2-yl)-N-(4-((3-(5,6,7,8-tetrahydro-1,8-naphthyridin-4-yl)-2-pyridinyl)oxy)phenyl)-3-pyridazinamine] |  |
|  |  | 500 to 2500 nM | COc1ccc(CNc2cc(-c3ccccc3Oc3ncc(Nc4nnc(-c5ccccc5)c5ccccc45)cn3)ccn2)cc1 [compound 290, N-(2-((2-(2-(((4-(methyloxy)phenyl)methyl)amino)-4-pyridinyl)phenyl)oxy)-5-pyrimidinyl)-4-phenyl-1-phthalazinamine] |  |
|  |  | ≤ 100 nM | c1ccc(-c2nnc(Nc3ccc(Oc4ncccc4-c4ccnc(N5CCC5)n4)cc3)c3ccccc23)cc1 [compound 294, N-(4-((3-(2-(1-azetidinyl)-4-pyrimidinyl)-2-pyridinyl)oxy)phenyl)-4-phenyl-1-phthalazinamine] |  |
|  |  |  | Oc1nccc(-c2cccnc2Oc2ccc(Nc3nnc(-c4ccccc4)c4ccccc34)cc2)n1 [compound 325, 4-(2-((4-((4-phenyl-1-phthalazinyl)amino)phenyl)oxy)-3-pyridinyl)-2-pyrimidinol] | IC50 [1, 9]: 500 to 2500 nM |
|  |  | ≤ 100 nM | Nc1nccc(-c2cccnc2Oc2ccc(Nc3nnc(N4CCC(CO)CC4)c4ccccc34)cc2)n1 [compound 353, (1-(4-((4-((3-(2-amino-4-pyrimidinyl)-2-pyridinyl)oxy)phenyl)amino)-1-phthalazinyl)-4-piperidinyl)methanol] |  |
|  |  | 100 to 500 nM | C[C@H]1CN(c2nnc(Nc3ccc(Oc4ncccc4-c4ccnc(N)n4)cc3)c3ccccc23)CCN1 [compound 398, N-(4-((3-(2-amino-4-pyrimidinyl)-2-pyridinyl)oxy)phenyl)-4-((3S)-3-methyl-1-piperazinyl)-1-phthalazinamine] |  |
|  |  | ≤ 100 nM | Nc1nccc(-c2cccnc2Oc2ccc(Nc3nnc(-c4cccc(CNCCO)c4)c4ccccc34)cc2)n1 [compound 413, 2-(((3-(4-((4-((3-(2-amino-4-pyrimidinyl)-2-pyridinyl)oxy)phenyl)amino)-1-phthalazinyl)phenyl)methyl)amino)ethanol] |  |

Source: patent publication EP1984353B1, “AURORA KINASE MODULATORS AND METHOD OF USE” (Amgen, Inc, priority 2006, dated 2007)
